Reference: publication PMC12047801, “Disrupting the OTUD4-USP7 deubiquitinase complex to suppress herpesvirus replication: a novel antiviral strategy” (PLOS Pathogens, 2025)
“And” between values parts separate entries of the source, which are not always exact repeats. Equal entries are not always repeated. Where two headings read alike, the source gives them in different places. Where a SMILES comes first, the peptide text is derived from it.

Key:
KSHV lytic replication = conditions: cited from earlier work
From the text: In KSHV-associated cancers, such as Kaposi’s sarcoma (KS), tumor cells predominantly display latent viral infection, while spontaneous reactivation takes place in only 1–3% of infected cells. […] Despite the low percentage of lytic cells, lytic replication plays a critical role in KS pathogenesis. Firstly, the production and release of infectious KSHV particles sustain the latently infected cell population by compensating for episomal loss duri ... || KSHV is the etiological agent of Kaposi’s sarcoma (KS) and primary effusion lymphoma (PEL), and contributes to other malignancies such as multicentric Castleman’s disease (MCD). […] Therefore, KSHV antiviral treatments, including those aimed at inhibiting lytic replication, are actively being developed. […] MMV1645152, identified from the Medicines for Malaria Venture (MMV) Pandemi ...

[1] = test system: Kaposi's sarcoma (KS) progression; conditions: cited from earlier work
[2] = test system: KSHV lytic reactivation in SLK.iBAC-GFP cells; format: cell-based; conditions: for IC50: Dox + sodium butyrate, mean ± s.d. of N = 3
Procedure: (A) Graphical illustration showing the rationale underlying our peptide design. (B) Surface Plasmon Resonance (SPR) analysis assessing the interaction of the USP7-TRAF domain with the designed peptides p2 and p8. (C) SLK.iBAC-GFP cells were induced with doxycycline (Dox, 1 μg/mL) and sodium butyrate (0.5 mM) in the presence of the Tat fusion peptides (100 μM). All the peptides were fused to an N-terminal Tat47-57 peptide ([…]) via a flexible GG linker. The supernatants containing infectious virions were collected 48 h post-induction and used to infect HEK293T cells. KSHV infectious units were calculated based on the percentage of GFP-positive cells determined by flow cytometry. Data are mean ± s.d. of N = 3 independent biological replicates. (D) SLK.iBAC-GFP cells were induced with doxycycline (Dox, 1 μg/mL) and sodium butyrate (0.5 mM) in the presence of increasing amount of p8 (0, 10, 50, 100 μM). KSHV infectious units were determined 48 h post-induction. Data are mean ± s.d. of N = 3 independent biological replicates. […] Data are mean ± s.d. of N = 3 independent biological replicates. […] Cell viability was assessed by measuring ATP levels 48 h post-induction. Data are mean ± s.d. of N = 3 independent biological replicates.
Peptides p1 to p12 (S1A Fig) were synthesized by Sangon Biotech (Shanghai, China) with 95% purity. The Tat-fused peptides in Fig 1C consisted of the corresponding peptides conjugated to the Tat47-57 peptide ([…]) and two glycine linker residues (QYAOBIO, Suzhou, China). The peptides p8-DRI (nssqsasqnvpprrrqrrkkrGy) and p2-DRI (iesndedavepprrrqrrkkrGy) were synthesized using D-amino acids in a retro-reversed sequence with 95% purity (QYAOBIO, Suzhou, China). The peptide p8-m ([…]) was synthesized with 95% purity (QYAOBIO, Suzhou, China). All the peptides were acetylated at the N-terminus and amidated at the C-terminus to mimic the native peptide structure. The peptides were dissolved in PBS to prepare 1 mM stock solutions for in vitro experiments and 5 mg/ml stock solutions for in vivo experiments.
SLK.iBAC-GFP cells were treated with Dox (1 μg/ml) and sodium butyrate (0.5 mM) to induce lytic reactivation in the presence of indicated peptides (100 μM). The supernatants were collected at the specified time points and used to infect HEK293T cells at appropriate dilutions. The infected cells were collected, fixed, and analyzed by flow cytometry 24 h post-infection. FlowJo 10.0 software was used to analyze the data, and KSHV infectious units were quantified based on the percentage of GFP-positive cells.

USP7-TRAF domain = biological target: T1, USP7-TRAF domain (Homo sapiens, UniProt Q93009); test: Surface plasmon resonance (SPR) analysis of peptide binding to USP7-TRAF
T1 construct: The TRAF domain of human and murine USP7 (1-208 aa) was subcloned into pGEX-6p-1; GST (N); made in house; host or cells: E. coli BL21 (DE3)

[3] = test system: MHV68 in Otud4fl/fl Cre-ERT2 mice; format: in vivo; conditions: 5 mg/kg
[4] = test system: lung inflammation in MHV68-infected C57BL/6 mice; format: in vivo; conditions: Fig 5F, 5 mg/kg, 5 days post-infection, vs vehicle
Procedure: Fig 5 P8-DRI restricts MHV68 Infection in vivo. (A-B) MLF cells were infected with MHV68 (MOI, 0.01) and treated with the indicated peptides (100 µM). Viral titer was determined by plaque assays 48 h post-infection (A). Viral gene expression was assessed by RT-qPCR (B). Data are mean ± s.d. of N = 3 independent biological replicates. […] Data are mean ± s.d. of N = 3 independent biological replicates. (D-E) C57BL/6 mice were intranasally inoculated with MHV68 (4000 PFU) and administrated with p8-DRI (5 mg/kg of body weight) or vehicle control (n = 6 per group). Viral loads in lung tissues were quantified at 5 days post-infection (D). Viral gene expression in lung tissues was measured by RT-qPCR at 5 days post-infection (E). Data are mean ± s.d. of N = 6 independent biological replicates. […] Viral titers in lung tissues were determined at 5 days post-infection (G). Viral gene expression in lung tissues was assessed by RT-qPCR (H). […] (I) H&E staining of lung tissue sections from MHV68-infected Otud4^^fl/fl Cre-ERT2^-/- and Otud4^^fl/fl Cre-ERT2^+/- mice treated with p8-DRI or vehicle control, analyzed at 5 days post-infection. […]
Mouse lung tissue samples were fixed in 10% formalin solution (Sigma) overnight. […] The tissue sections were stained using standard H&E staining protocols and analyzed microscopically.

[5] = test system: lung pathology in MHV68-infected Otud4fl/fl Cre-ERT2 mice; format: in vivo; conditions: for Histological score of lungs: Fig. 5I
MHV68 in C57BL/6 mice [6] = test: Viral loads/titers in lungs of MHV68-infected C57BL/6 mice; format: in vivo; conditions: 5 days post-infection
MHV68 in C57BL/6 mice [7] = format: in vivo; conditions: Fig 5E, 5 mg/kg, 5 days post-infection
Procedure: Fig 5 P8-DRI restricts MHV68 Infection in vivo. (A-B) MLF cells were infected with MHV68 (MOI, 0.01) and treated with the indicated peptides (100 µM). Viral titer was determined by plaque assays 48 h post-infection (A). Viral gene expression was assessed by RT-qPCR (B). Data are mean ± s.d. of N = 3 independent biological replicates. […] Data are mean ± s.d. of N = 3 independent biological replicates. (D-E) C57BL/6 mice were intranasally inoculated with MHV68 (4000 PFU) and administrated with p8-DRI (5 mg/kg of body weight) or vehicle control (n = 6 per group). Viral loads in lung tissues were quantified at 5 days post-infection (D). Viral gene expression in lung tissues was measured by RT-qPCR at 5 days post-infection (E). Data are mean ± s.d. of N = 6 independent biological replicates. (F) H&E staining of lung tissue sections from MHV68-infected mice treated with p8-DRI or vehicle 5 days post-infection. Scale bars, 500 µm (left) and 100 µm (right). […] Viral titers in lung tissues were determined at 5 days post-infection (G). Viral gene expression in lung tissues was assessed by RT-qPCR (H). […] (I) H&E staining of lung tissue sections from MHV68-infected Otud4^^fl/fl Cre-ERT2^-/- and Otud4^^fl/fl Cre-ERT2^+/- mice treated with p8-DRI or vehicle control, analyzed at 5 days post-infection. […]

[8] = test system: interaction between OTUD4 and USP7-TRAF; test: GST pull-down competition assay, human USP7-TRAF and FLAG-OTUD4; format: binding; conditions: 100 μM, 4 h

T1 sequence (Q93009 1-208): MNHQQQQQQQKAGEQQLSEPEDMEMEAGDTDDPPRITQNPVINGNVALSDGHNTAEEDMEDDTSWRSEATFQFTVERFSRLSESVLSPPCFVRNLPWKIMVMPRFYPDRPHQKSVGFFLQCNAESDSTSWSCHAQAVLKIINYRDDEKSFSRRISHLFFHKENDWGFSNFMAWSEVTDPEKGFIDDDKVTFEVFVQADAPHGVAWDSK

CCc1cc(-c2n[nH]c(C)c2-c2ccc3c(c2)OCCO3)c(O)cc1O [CCT018159]
Inhibition of KSHV lytic replication and virion production (in words) (KSHV lytic replication; UAP56 ATPase inhibitor): successfully blocks KSHV lytic replication and infectious virion production

Nc1nc(O)c2ncn(COC(CO)CO)c2n1 [Ganciclovir]
Inhibition of KSHV lytic replication (in words) (KSHV lytic replication; nucleoside analogue): inhibits KSHV lytic replication
Prevention of KS progression (in words) [1]: remarkable efficacy in randomized clinical trials for preventing KS progression

Nc1nc(O)c(Br)c(-c2cccc(Cl)c2)n1 [MMV1645152]
Inhibition of KSHV lytic replication (in words) (KSHV lytic replication): effectively blocking KSHV lytic replication

Cc1c(O)cccc1C(=O)N[C@@H](CSc1ccccc1)[C@H](O)CN1C[C@H]2CCCC[C@H]2C[C@H]1C(=O)NC(C)(C)C [Nelfinavir]
Inhibition of KSHV virion production (in words) (KSHV lytic replication): prevents mature virion production

CC[C@@H](C)[C@@H](NC(C)=O)C(=O)N[C@H](CCC(=O)O)C(=O)N[C@H](CO)C(=O)N[C@H](CC(N)=O)C(=O)N[C@H](CC(=O)O)C(=O)N[C@H](CCC(=O)O)C(=O)N[C@H](CC(=O)O)C(=O)N[C@H](C)C(=O)N[C@@H](C(=O)N[C@H](CCC(=O)O)C(=O)N1CCC[C@@H]1C(=O)N1CCC[C@@H]1C(=O)N[C@H](CCCNC(=N)N)C(=O)N[C@H](CCCNC(=N)N)C(=O)N[C@H](CCCNC(=N)N)C(=O)N[C@H](CCC(N)=O)C(=O)N[C@H](CCCNC(=N)N)C(=O)N[C@H](CCCNC(=N)N)C(=O)N[C@H](CCCCN)C(=O)N[C@H](CCCCN)C(=O)N[C@H](CCCNC(=N)N)C(=O)NCC(=O)N[C@H](Cc1ccc(O)cc1)C(N)=O)C(C)C [p2-DRI] (HELM PEPTIDE1{[ac].[dI].[dE].[dS].[dN].[dD].[dE].[dD].[dA].[dV].[dE].[dP].[dP].[dR].[dR].[dR].[dQ].[dR].[dR].[dK].[dK].[dR].G.[dY].[am]}$$$$V2.0)
IC50 ([2]; SLK.iBAC-GFP cells): 67.4 ± 34.1 µM

CC(=O)N[C@H](CC(N)=O)C(=O)N[C@H](CO)C(=O)N[C@H](CO)C(=O)N[C@H](CCC(N)=O)C(=O)N[C@H](CO)C(=O)N[C@H](C)C(=O)N[C@H](CO)C(=O)N[C@H](CCC(N)=O)C(=O)N[C@H](CC(N)=O)C(=O)N[C@@H](C(=O)N1CCC[C@@H]1C(=O)N1CCC[C@@H]1C(=O)N[C@H](CCCNC(=N)N)C(=O)N[C@H](CCCNC(=N)N)C(=O)N[C@H](CCCNC(=N)N)C(=O)N[C@H](CCC(N)=O)C(=O)N[C@H](CCCNC(=N)N)C(=O)N[C@H](CCCNC(=N)N)C(=O)N[C@H](CCCCN)C(=O)N[C@H](CCCCN)C(=O)N[C@H](CCCNC(=N)N)C(=O)NCC(=O)N[C@H](Cc1ccc(O)cc1)C(N)=O)C(C)C [p8-DRI] (HELM PEPTIDE1{[ac].[dN].[dS].[dS].[dQ].[dS].[dA].[dS].[dQ].[dN].[dV].[dP].[dP].[dR].[dR].[dR].[dQ].[dR].[dR].[dK].[dK].[dR].G.[dY].[am]}$$$$V2.0)
Binding affinity for USP7-TRAF relative to p8 (in words) (USP7-TRAF domain; N = 3 (S5H Fig)): remained comparable to that of p8
IC50 ([2]; SLK.iBAC-GFP cells): 9.23 ± 1.29 µM
Antiviral effect in OTUD4-deficient mice (in words) ([3]; Figs 5G-5I, Otud4fl/fl Cre-ERT2+/- + tamoxifen): abolished in OTUD4-deficient mice
Viral titers in lungs of OTUD4-replete mice (in words) ([3]; Otud4fl/fl Cre-ERT2-/-, vs vehicle): lower viral titers in lung tissues
Lung inflammation and immune cell infiltration (in words) [4]: less inflammation and immune cell infiltration in the lungs
Histological score of lungs ([5]; OTUD4 KO mice, replicate 1): 1
Histological score of lungs ([5]; OTUD4 KO mice, replicate 2): 1
Histological score of lungs ([5]; OTUD4 KO mice, replicate 3): 1
Histological score of lungs ([5]; OTUD4 KO mice, replicate 4): 2
Histological score of lungs ([5]; OTUD4 KO mice, replicate 5): 3
Histological score of lungs ([5]; OTUD4 WT mice, replicate 1): 1
Histological score of lungs ([5]; OTUD4 WT mice, replicate 2): 1
Histological score of lungs ([5]; OTUD4 WT mice, replicate 3): 1
Histological score of lungs ([5]; OTUD4 WT mice, replicate 4): 2
Histological score of lungs ([5]; OTUD4 WT mice, replicate 5): 3
Viral pathology in OTUD4-replete mice (in words) ([5]; Otud4fl/fl Cre-ERT2-/-, 5 mg/kg, vs vehicle): reduced viral pathology
Viral titers in lung tissues (in words) (MHV68 in C57BL/6 mice [6]; Fig 5D, 5 mg/kg, vs vehicle): lower viral titers in lung tissues
Viral loads in lung tissues (MHV68 in C57BL/6 mice [6]; Fig. 5D, 5 mg/kg p8-DRI, MHV68 4000 PFU intranasal, single animals, one line per mouse (n = 6)): 12.8424 and 18.8481 and 2.1041 and 7.7972 and 13.617 and 0.6389
MHV68 viral gene transcription (ORF50, ORF9, ORF25) in lungs (in words) (MHV68 in C57BL/6 mice [7]): significantly reduced

Ac-YGRKKRRQRRRGGEVADEDNSEI-NH2 [p2]
Binding to the USP7-TRAF domain (in words) (USP7-TRAF domain): specifically bound to the USP7-TRAF domain
Disruption of OTUD4/USP7-TRAF interaction (in words) [8]: failed to disrupt the interaction between USP7-TRAF and OTUD4
IC50, KSHV lytic reactivation (in words) ([2]; SLK.iBAC-GFP cells, Tat-fused peptide): could not be determined due to its low antiviral activity
Inhibition of KSHV lytic reactivation (in words) ([2]; Tat-fused peptides, 100 μM or dose series, 48 h post-induction): no significant inhibition
